# Patent US8853244B2, “Thiophene-carboxamides useful as inhibitors of protein kinases” (Vertex Pharmaceuticals Incorporated, priority 2006, dated 2014)
# Biological target: T1, Plk1 (Homo sapiens, UniProt P53350)
# T1 construct: in the presence of 15 nM Plk1 (A20-K338)
# Assay: Plk1 inhibition assay (radioactive-phosphate incorporation)
# Type: biochemical
# Conditions: Ki(app)
# Experimental: The compounds of the present invention are evaluated as inhibitors of human PLK kinase using the following assays.
# Compounds were screened for their ability to inhibit Plk1 using a radioactive-phosphate incorporation assay. Assays were carried out in a mixture of 25 mM HEPES (pH 7.5), 10 mM MgCl2, and 1 mM DTT. Final substrate concentrations were 50 μM [γ-33P]ATP (136 mCi 33P ATP/mmol ATP, Amersham Pharmacia Biotech/Sigma Chemicals) and 10 μM peptide (SAM68 protein Δ332-443). Assays were carried out at 25° C. in the presence of 15 nM Plk1 (A20-K338). An assay stock buffer solution was prepared containing all of the reagents listed above, with the exception of ATP and the test compound of interest. 30 μL of the stock solution was placed in a 96 well plate followed by addition of 2 μL of DMSO stock containing serial dilutions of the test compound (typically starting from a final concentration of 10 μM with 2-fold serial dilutions) in duplicate (final DMSO concentration 5%). The plate was pre-incubated for 10 minutes at 25° C. and the reaction initiated by addition of 8 μL [γ-33P]ATP (final concentration 50 μM). […]
# After removing mean background values for all of the data points, Ki(app) data were calculated from non-linear regression analysis of the initial rate data using the Prism software package (GraphPad Prism version 3.0cx for Macintosh, GraphPad Software, San Diego Calif., USA). […]
# T1 sequence (P53350 20-338): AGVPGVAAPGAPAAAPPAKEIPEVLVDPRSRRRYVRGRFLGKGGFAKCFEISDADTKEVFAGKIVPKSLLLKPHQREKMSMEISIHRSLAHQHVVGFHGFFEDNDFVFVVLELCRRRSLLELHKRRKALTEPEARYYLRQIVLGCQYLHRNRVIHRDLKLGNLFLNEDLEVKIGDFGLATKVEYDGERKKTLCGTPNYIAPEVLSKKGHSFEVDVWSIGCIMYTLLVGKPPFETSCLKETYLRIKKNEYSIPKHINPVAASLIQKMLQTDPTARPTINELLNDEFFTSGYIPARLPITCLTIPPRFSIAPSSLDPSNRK
structure (smiles),measurement,value
"CC(Oc1cc(-c2cc(-c3cccc(Cl)c3)cnc2N)sc1C(N)=O)c1ccccc1Cl (stereo not shown) [I-3, 5-[2-Amino-5-(3-chloro-phenyl)-pyridin-3-yl]-3-[1-(2-chloro-phenyl)-ethoxy]-thiophene-2-carboxylic acid amide]",Ki,< 10 nM
